Data reported in patent publication US12723233B2, “Media and methods for differentiating natural killer cells” (STEMCELL Technologies Canada Inc., priority 2018, dated 2026).
Entries after “also recorded” stand apart in the source; their conditions may differ.

Tests used:
Format in all cases: cell-based, Human
[1] = test system: sorted day 14 populations of NK cell progenitors; experiment: Differentiation of sorted day 14 NK cell progenitor subsets to CD56+ NK cells, cultured another 14 days
From the text: CD34^+ CB cells were isolated and cultured as described in Example 1 up to the day 14 time point. NK cell progenitors derived from CB CD34^+ HSPCs after 14 days of culture were stained, essentially as described in Example 3, with antibodies against markers CD5, CD7, and CD56. CD56^− cells were gated and CD7^+CD5^−, CD7^+CD5^+, CD5^−CD7^− cells were sorted using a BD FACSAria Fusion fluorescence-activated cell sorter. To investigate which subset of the day 14 population of NK cell progenitors is targeted by pyrimidoindole compounds, the CD7^+CD5^−, CD7^+CD5^+ and CD7^−CD5^− sorted populations were each cultured for another 14 days in NK Cell Differentiation medium without or with UM729. CD34^+ CB cells were isolated and cultured as described in Example 1 up to the day 14 time point. NK cell progenitors derived from CB CD34^+ HSPCs after 14 days of culture were stained, essentially as described in Example 3, with antibodies against markers CD5, CD7, CD34, and CD56. CD56^− cells were gated and […], and CD34^− CD7^+CD5^− and CD34^−CD7^+CD5^+ were sorted using a BD FACSAria Fusion fluorescence-activated cell sorter. CD7 cells were sorted as a negative control. To investigate which subset of the day 14 population of NK cell progenitors is targeted by pyrimidoindole compounds, the CD34^+CD7^+CD5^− and CD34^+CD7^+CD5^+, and CD34^−CD7^+CD5^− and CD34^− CD7^+CD5^+ sorted populations were each cultured for another 14 days in NK Cell Differentiation medium with or without UM729.

[2] = test system: PSC-derived NK cell progenitors; experiment: Differentiation of PSC-derived NK cell progenitors to CD56+ cells; conditions: PSC lines 1C, M001, H1, F016; UM729 during days 24 to 38
Method: Three induced pluripotent stem cell (iPSC) lines—WLS-1C, STiPSC M001, and STiPS F016—and one embryonic stem cell (ESC) line—H1 were maintained in mTeSR™ 1. The PSC were harvested and dissociated using accutase into single cell suspensions and were filtered using 37 μm reversible strainer (STEMCELL Technologies).
Single cell suspensions of PSC were seeded into AggreWell plates (STEMCELL Technologies) to form 500-cell aggregates. The seeded cells were cultured in a mesoderm differentiation medium and 10 μM Y027632 (STEMCELL Technologies). After 3 days (i.e. on day 3) in culture the medium was changed to induce hematopoietic lineage differentiation. After 7 days (i.e. on day 10) in culture the aggregates were harvested and dissociated using collagenase II and a trypsin-containing solution.
Dissociated cells were enriched for CD34^+ cells using EasySep™ Human CD34 Positive Selection Kit II (STEMCELL Technologies, catalogue #17856). […]
The cells were stained for CD56 essentially as described in Example 3 and analyzed for frequency of CD56^+ cells and yield of CD56^+ cells per 5×10^4 input PSC-derived CD34^+ cells. […]

[3] = test system: differentiated CD56+ NK cells; experiment: Flow cytometry of NK cell, maturity and T cell markers on differentiated CD56+ NK cells at day 28
Method: CD56^+ NK cells were differentiated as described in Examples 1 and 2 in the presence of 1 μM UM729 and analyzed on day 28 by flow cytometry for the expression of known NK cell markers. Cells were stained with fluorescence-conjugated antibodies against indicated NK cell markers for 15 min at 4° C. Non-specific binding was blocked using FcR blocker and 5% human or rat serum. Dead cells were excluded by light scatter profile and 7-AAD or DRAQ7 staining. Prepared samples were analyzed by flow cytometry.
CD56^+ NK cells were differentiated as described in Examples 1 and 2 in the presence of 1 μM UM729 and analyzed on day 28 by flow cytometry for the expression of known NK cell markers. The cells were stained for the markers described in this Example essentially as described in Example 3. Staining for KIR molecules was performed using a combination of two clones for the antibody, 180704 and HP-MA4, as each recognizes a distinct subset of KIR molecules. Dead cells were excluded by light scatter profile and 7-AAD or DRAQ7 staining.
Production of IFNγ by the differentiated CD56^+ NK cells was also measured. For IFNγ intracellular staining, differentiated CD56^+ NK Cells were stimulated with PMA/Ionomycin for 2 hours. Brefeldin A was added and the cells were incubated for another 2 hours. The cells were harvested and stained for CD56 and Zombie NIR viability dye then fixed, permeabilized and stained for intracellular IFNγ.
CD56^+ NK cells were differentiated as described in Examples 1 and 2 in the presence of pyrimidoindole compounds and analyzed on day 28 by flow cytometry for the expression of a T cell marker. The analyzed cells were stained for CD3 essentially as described in Example 3. Dead cells were excluded by light scatter profile and 7-AAD or DRAQ7 staining.

[4] = sorted CD7+CD5+ cells, 14 days with UM729, three donors
[5] = sorted CD7+CD5− cells, 14 days with UM729, three donors
[6] = sorted CD34−CD7+CD5+ cells, 14 days with UM729
[7] = sorted CD34−CD7+CD5− cells, 14 days with UM729
[8] = cells differentiated in the presence of 1 μM UM729, day 28

COC(=O)c1ccc2c(c1)[nH]c1ncnc(NCCCN3CCCCC3)c12 [UM729, methyl 4-((3-(piperidin-1-yl)propyl)amino)-9H-pyrimido[4,5-b]indole-7-carboxylate]
Frequency of NK cells compared to culture conditions lacking UM729 [1, 4]: higher
Yield of NK cells compared to culture conditions lacking UM729 [1, 4]: higher
Frequency of NK cells compared to culture conditions lacking UM729 [1, 5]: higher
Yield of NK cells compared to culture conditions lacking UM729 [1, 5]: higher
Expansion and differentiation to NK cells ([1]; sorted CD7−CD5− cells, presence or absence of UM729): did not expand and differentiate to NK cells
Responsiveness of CD34+ NK progenitor cell subsets to UM729 ([1]; sorted CD34+CD7+CD5− and CD34+CD7+CD5+ cells, 14 days with UM729): do not appear responsive
Frequency of NK cells compared to culture conditions lacking UM729 [1, 6]: higher
Yield of NK cells compared to culture conditions lacking UM729 [1, 6]: higher
Frequency of NK cells compared to culture conditions lacking UM729 [1, 7]: higher
Yield of NK cells compared to culture conditions lacking UM729 [1, 7]: higher
Frequency of CD56+ cells compared to absence of UM729 [2]: increased
Yield of CD56+ cells per 5×10^4 input PSC-derived CD34+ cells compared to absence of UM729 [2]: increased
Analyzed cells co-expressing CD56 and CD16 [3, 8]: approximately 17%
Analyzed cells co-expressing CD56 and CD94 [3, 8]: approximately 18%
Analyzed cells co-expressing CD56 and KIR [3, 8]: approximately 10%
Analyzed cells co-expressing CD56 and NKG2D [3, 8]: approximately 50%
Analyzed cells co-expressing CD56 and NKp30 [3, 8]: approximately 80%
Analyzed cells co-expressing CD56 and NKp44 [3, 8]: approximately 80%
Analyzed cells co-expressing CD56 and NKp46 [3, 8]: approximately 70%
Differentiated CD56+ NK cells expressing intracellular IFNγ upon stimulation ([3]; cells differentiated in the presence of 1 μM UM729, PMA/Ionomycin 2 hours, then Brefeldin A 2 hours): approximately 58%
Expression of CD3 among differentiated cells ([3]; cord blood sample of a second donor, 1 μM UM729, day 28): virtually absent; also recorded: do not express CD3
